Results reported in ChEMBL document CHEMBL1201862, “PubChem BioAssay data set” (2004).
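Where inhibition never reached the appropriate level, the endpoint shown equals the highest concentration tested. Otherwise, values were interpolated linearly from a five-concentration, 48-hour dose response in 96-well plates. GI50 is the concentration that inhibits growth by half.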 The source made the active and inactive calls. Cut-off read from the data, not from the text of the source: active = GI50 up to about 1.1 µM and inactive = higher.

Key:
Assay in all cases: growth of human tumour cells (NCI), 48 h
K562 = system: K562
NCI-H460 = system: NCI-H460
SN12C = system: SN12C
MDA-N = system: MDA-N
A498 = system: A498
MDA-MB-435 = system: MDA-MB-435
U-251 = system: U-251
SF-539 = system: SF-539
MCF7 = system: MCF7
CCRF-CEM = system: CCRF-CEM
SR = system: SR
RXF 393 = system: RXF 393
SK-MEL-5 = system: SK-MEL-5
Malme-3M = system: Malme-3M
SW-620 = system: SW-620
M14 = system: M14
PC-3 = system: PC-3
DU-145 = system: DU-145
UO-31 = system: UO-31
EKVX = system: EKVX
OVCAR-3 = system: OVCAR-3
SNB-75 = system: SNB-75
NCI-H23 = system: NCI-H23
HL-60 = system: HL-60
UACC-62 = system: UACC-62
IGROV-1 = system: IGROV-1
HOP-62 = system: HOP-62
HOP-92 = system: HOP-92
OVCAR-8 = system: OVCAR-8
RPMI-8226 = system: RPMI-8226
MDA-MB-231 = system: MDA-MB-231
786-0 = system: 786-0
HT-29 = system: HT-29
NCI/ADR-RES = system: NCI/ADR-RES
SF-295 = system: SF-295
COLO 205 = system: COLO 205
SK-MEL-28 = system: SK-MEL-28
TK-10 = system: TK-10
HCT-116 = system: HCT-116
OVCAR-4 = system: OVCAR-4
CAKI-1 = system: CAKI-1
NCI-H522 = system: NCI-H522
KM12 = system: KM12
SF-268 = system: SF-268
MOLT-4 = system: MOLT-4
HCT-15 = system: HCT-15
Hs-578T = system: Hs-578T
SK-OV-3 = system: SK-OV-3
SK-MEL-2 = system: SK-MEL-2
SNB-19 = system: SNB-19
LOX IMVI = system: LOX IMVI
HCC 2998 = system: HCC 2998
A549 = system: A549
BT-549 = system: BT-549
UACC-257 = system: UACC-257
T47D = system: T47D
NCI-H226 = system: NCI-H226
OVCAR-5 = system: OVCAR-5
ACHN = system: ACHN

C[N+]12CCCCC1C(CN1C(=O)c3ccccc3C1=O)CCC2 (stereo not drawn) was tested, and the GI50 (K562) was > 100 µM (inactive), the GI50 (NCI-H460) was > 100 µM (inactive) and the GI50 (SN12C) was > 100 µM (inactive). For the same molecule, the GI50 (MDA-N) was > 100 µM (inactive), the GI50 (A498) was > 100 µM (inactive) and the GI50 (MDA-MB-435) was > 100 µM (inactive). For the same molecule, the GI50 (U-251) was > 100 µM (inactive), the GI50 (SF-539) was > 100 µM (inactive) and the GI50 (MCF7) was > 100 µM (inactive). The GI50 (CCRF-CEM) was > 100 µM (inactive), the GI50 (SR) was 56 µM (inactive) and the GI50 (RXF 393) was > 100 µM (inactive). The GI50 (SK-MEL-5) was > 100 µM (inactive), the GI50 (Malme-3M) was > 100 µM (inactive) and the GI50 (SW-620) was > 100 µM (inactive). The GI50 (M14) was > 100 µM (inactive), the GI50 (PC-3) was > 100 µM (inactive) and the GI50 (DU-145) was > 100 µM (inactive). For the same molecule, the GI50 (UO-31) was > 100 µM (inactive), the GI50 (EKVX) was > 100 µM (inactive) and the GI50 (OVCAR-3) was > 100 µM (inactive). The GI50 (SNB-75) was > 100 µM (inactive), the GI50 (NCI-H23) was > 100 µM (inactive) and the GI50 (HL-60) was > 100 µM (inactive). For the same molecule, the GI50 (UACC-62) was > 100 µM (inactive), the GI50 (IGROV-1) was > 100 µM (inactive) and the GI50 (HOP-62) was > 100 µM (inactive). For the same molecule, the GI50 (HOP-92) was > 100 µM (inactive), the GI50 (OVCAR-8) was > 100 µM (inactive) and the GI50 (RPMI-8226) was > 100 µM (inactive). The GI50 (MDA-MB-231) was > 100 µM (inactive), the GI50 (786-0) was > 100 µM (inactive) and the GI50 (HT-29) was > 100 µM (inactive). The GI50 (NCI/ADR-RES) was > 100 µM (inactive), the GI50 (SF-295) was > 100 µM (inactive) and the GI50 (COLO 205) was > 100 µM (inactive). The GI50 (SK-MEL-28) was > 100 µM (inactive), the GI50 (TK-10) was > 100 µM (inactive) and the GI50 (HCT-116) was > 100 µM (inactive). For the same molecule, the GI50 (OVCAR-4) was > 100 µM (inactive), the GI50 (CAKI-1) was > 100 µM (inactive) and the GI50 (NCI-H522) was > 100 µM (inactive). The GI50 (KM12) was > 100 µM (inactive), the GI50 (SF-268) was > 100 µM (inactive) and the GI50 (MOLT-4) was > 100 µM (inactive). For the same molecule, the GI50 (HCT-15) was > 100 µM, the GI50 (Hs-578T) was > 100 µM (inactive) and the GI50 (SK-OV-3) was > 100 µM (inactive). For the same molecule, the GI50 (SK-MEL-2) was > 100 µM (inactive), the GI50 (SNB-19) was > 100 µM (inactive) and the GI50 (LOX IMVI) was > 100 µM (inactive). The GI50 (HCC 2998) was > 100 µM (inactive), the GI50 (A549) was > 100 µM (inactive) and the GI50 (BT-549) was > 100 µM (inactive). The GI50 (UACC-257) was > 100 µM (inactive), the GI50 (T47D) was > 100 µM (inactive) and the GI50 (NCI-H226) was > 100 µM (inactive). For the same molecule, the GI50 (OVCAR-5) was > 100 µM (inactive) and the GI50 (ACHN) was > 100 µM (inactive).
CC(C)C1C(=O)N(c2c(F)c(F)c(F)c(F)c2F)C(=S)N1CC[S+]([O-])c1ccccc1 (stereo not drawn) was tested, and the GI50 (K562) was 10.8 µM (inactive), the GI50 (NCI-H460) was 19.3 µM (inactive) and the GI50 (SN12C) was 15.8 µM (inactive). For the same molecule, the GI50 (MDA-N) was 17.3 µM (inactive), the GI50 (A498) was 16.6 µM (inactive) and the GI50 (MDA-MB-435) was 17.5 µM (inactive). The GI50 (U-251) was 14.8 µM (inactive), the GI50 (SF-539) was 19.7 µM (inactive) and the GI50 (MCF7) was 16.6 µM (inactive). For the same molecule, the GI50 (CCRF-CEM) was 18.3 µM (inactive), the GI50 (SR) was 6.22 µM (inactive) and the GI50 (RXF 393) was 17.8 µM (inactive). For the same molecule, the GI50 (SK-MEL-5) was 14.2 µM (inactive), the GI50 (Malme-3M) was 15.7 µM (inactive) and the GI50 (SW-620) was 18.3 µM (inactive). The GI50 (M14) was 15.7 µM (inactive), the GI50 (PC-3) was 15.4 µM (inactive) and the GI50 (DU-145) was 20.7 µM (inactive). For the same molecule, the GI50 (UO-31) was 14.8 µM (inactive), the GI50 (EKVX) was 16.4 µM (inactive) and the GI50 (OVCAR-3) was 16.6 µM (inactive). The GI50 (SNB-75) was 26.4 µM (inactive), the GI50 (NCI-H23) was 16.8 µM (inactive) and the GI50 (HL-60) was 6.84 µM (inactive). The GI50 (UACC-62) was 19.7 µM (inactive), the GI50 (IGROV-1) was 16.7 µM (inactive) and the GI50 (HOP-62) was 23.9 µM (inactive). The GI50 (HOP-92) was 9.77 µM (inactive), the GI50 (OVCAR-8) was 17.1 µM (inactive) and the GI50 (RPMI-8226) was 18.8 µM (inactive). For the same molecule, the GI50 (MDA-MB-231) was 16 µM (inactive), the GI50 (786-0) was 16.9 µM (inactive) and the GI50 (HT-29) was 14 µM (inactive). For the same molecule, the GI50 (NCI/ADR-RES) was 20 µM (inactive), the GI50 (SF-295) was 18 µM (inactive) and the GI50 (COLO 205) was 15.5 µM (inactive). The GI50 (SK-MEL-28) was 16.9 µM (inactive), the GI50 (TK-10) was 26.9 µM (inactive) and the GI50 (HCT-116) was 18.8 µM (inactive). The GI50 (OVCAR-4) was 16.3 µM (inactive), the GI50 (CAKI-1) was 5.19 µM (inactive) and the GI50 (NCI-H522) was 6.49 µM (inactive). The GI50 (KM12) was 16.8 µM (inactive), the GI50 (SF-268) was 16.7 µM (inactive) and the GI50 (MOLT-4) was 21.2 µM (inactive). For the same molecule, the GI50 (HCT-15) was 16.7 µM, the GI50 (Hs-578T) was 30.2 µM (inactive) and the GI50 (SK-OV-3) was 19.6 µM (inactive). For the same molecule, the GI50 (SK-MEL-2) was 17.5 µM (inactive), the GI50 (SNB-19) was 18.7 µM (inactive) and the GI50 (LOX IMVI) was 14.4 µM (inactive). The GI50 (HCC 2998) was 8.47 µM (inactive), the GI50 (A549) was 18.9 µM (inactive) and the GI50 (BT-549) was 15.9 µM (inactive). The GI50 (UACC-257) was 20.2 µM (inactive), the GI50 (T47D) was 6.78 µM (inactive) and the GI50 (NCI-H226) was 20.4 µM (inactive). For the same molecule, the GI50 (OVCAR-5) was 17.7 µM (inactive) and the GI50 (ACHN) was 18.6 µM (inactive).
